Measured values: US20150031656A1, “COMBINATION THERAPY FOR TREATING ANDROGEN DEFICIENCY” (REPROS THERAPEUTICS INC., priority 2012, published 2015)
Several values for one entry are separate records, joined by “and”; a condition that tells them apart may be missing. Equal values may be shown once. Where a name gives a salt, the structure may show the parent alone. Read-outs that look alike come from different tables or passages of the source.

Columns and labels:
total serum testosterone = conditions: for effect on total serum testosterone (in words): baboons; for effect on total serum testosterone (in words) / Serum Testosterone Levels, 12 days, group mean: 1.5 mg/kg for 12 days; for Serum Testosterone Levels, 6 days / Serum Testosterone Levels, 12 days / Serum Testosterone Levels, wash-out / Serum Testosterone Levels, baseline / Serum Testosterone Levels, 0 day: individual baboon; for Serum Testosterone Levels, 6 days / Serum Testosterone Levels, 6 days, group mean: 1.5 mg/kg daily, day 6; for Serum Testosterone Levels, 6 days / Serum Testosterone Levels, 12 days: 1.5 mg/kg; for Serum Testosterone Levels, 12 days: 1.5 mg/kg for 12 consecutive days; for Serum Testosterone Levels, 12 days / Serum Testosterone Levels, 12 days, group mean: day 12; for Serum Testosterone Levels, wash-out / Serum Testosterone Levels, wash-out, group mean: 7 days after the last treatment; for Serum Testosterone Levels, baseline: baseline Dec. 3, 2001, before treatment; for Serum Testosterone Levels, 0 day / Serum Testosterone Levels, 0 day, group mean: day 0, before first dose; for Serum Testosterone Levels, 6 days, group mean / Serum Testosterone Levels, 12 days, group mean / Serum Testosterone Levels, wash-out, group mean / Serum Testosterone Levels, baseline, group mean / Serum Testosterone Levels, 0 day, group mean: mean of 3 baboons; for Serum Testosterone Levels, baseline, group mean: before treatment
Text: (§1) The samples analyzed were sera taken on the day of first treatment before being given test article (day 0), after 12 days of treatment (day 12) and 7 days after the last treatment (end or wash-out).

serum cholesterol = conditions: baboons, 1.5 mg/kg for 12 days
serum prolactin (PRL) = assay: Serum prolactin in male baboons; conditions: 1.5 mg/kg for 12 days
Text: as §1

| Structure (SMILES) | effect on total serum testosterone (in words) (total serum testosterone) | Serum Testosterone Levels, 6 days, group mean (total serum testosterone) [ng/dL] | Serum Testosterone Levels, 12 days, group mean (total serum testosterone) [ng/dL] | Serum Testosterone Levels, wash-out, group mean (total serum testosterone) [ng/dL] | Serum Testosterone Levels, baseline, group mean (total serum testosterone) [ng/dL] | Serum Testosterone Levels, 0 day, group mean (total serum testosterone) [ng/dL] | ALT/SGPT (in vivo) | BUN and BUN/creatinine (in vivo) | serum glucose (in vivo, 1.5 mg/kg) | Serum Testosterone Levels, 6 days (total serum testosterone) | Serum Testosterone Levels, 12 days (total serum testosterone) | Serum Testosterone Levels, wash-out (total serum testosterone) | Serum Testosterone Levels, baseline (total serum testosterone) | Serum Testosterone Levels, 0 day (total serum testosterone) | also measured |
| --- | --- | --- | --- | --- | --- | --- | --- | --- | --- | --- | --- | --- | --- | --- | --- |
| CCN(CC)CCOc1ccc(C(=C(Cl)c2ccccc2)c2ccccc2)cc1 [Clomid, clomiphene citrate] | more variable total testosterone levels on day 6 and later | 559.3 | 588.7 | 203.6 | 111.5 | 161.4 | out of range low at the end of the study | altered during the study | within the normal range | – | – | – | – | – | Serum Testosterone Levels, 6 days (total serum testosterone; listed as CLO): 940.97 ng/dL and 585.92 ng/dL and 151.12 ng/dL; Serum Testosterone Levels, 12 days (total serum testosterone; listed as CLO): 891.5 ng/dL and 555.6 ng/dL and 318.9 ng/dL; Serum Testosterone Levels, wash-out (total serum testosterone; listed as CLO): 150.9 ng/dL and 316.3 ng/dL and 143.6 ng/dL; Serum Testosterone Levels, baseline (total serum testosterone; listed as CLO): 79.01 ng/dL and 97.55 ng/dL and 158.06 ng/dL; Serum Testosterone Levels, 0 day (total serum testosterone; listed as CLO): 76.15 ng/dL and 305.24 ng/dL and 102.94 ng/dL; serum carbon dioxide (in vivo): higher than reference values; effect on serum cholesterol levels (in words) (serum cholesterol): slight increase |
| CCN(CC)CCOc1ccc(/C(=C(/Cl)c2ccccc2)c2ccccc2)cc1 [Enclomid, trans-Clomid] | significantly and statistically raised total serum testosterone on days 6 and 12 | 1144.4 | 1088.5 | 325.8 | 134.0 | 105.0 | within the normal range | altered during the study | no increases with treatment | 1223.8 ng/dL and 1128.2 ng/dL and 1081.1 ng/dL | 633.6 ng/dL and 1466 ng/dL and 1166 ng/dL | 307.2 ng/dL and 399.2 ng/dL and 271 ng/dL | 64.57 ng/dL and 166.86 ng/dL and 170.45 ng/dL | 74.96 ng/dL and 133.59 ng/dL and 106.47 ng/dL | serum prolactin (PRL) during the study (serum prolactin (PRL)): decrease in serum prolactin (PRL); per cent of granulocytes in the blood (in vivo): lowering the per cent of granulocytes in the blood; platelet count (in vivo): pushed the platelet count to its normal male level; serum alkaline phosphatase (ALP) (in vivo): decreased in value; serum anion gap (in vivo): raised this parameter towards normal values; lymphocyte count and per cent lymphocytes (in vivo, 1.5 mg/kg): Both the count and per cent lymphocytes in the population increase; red blood cell population (in vivo, 1.5 mg/kg): substantive effects on the red blood cell population; decrease in serum cholesterol levels (serum cholesterol): 8% |
| CCN(CC)CCOc1ccc(/C(=C(\Cl)c2ccccc2)c2ccccc2)cc1 [Zuclomid, cis-Clomid] | did not raise total serum testosterone to any extent | 178.5 | 357.9 | 498.1 | 170.6 | 394.2 | – | – | – | 137.51 ng/dL and 169.98 ng/dL and 227.95 ng/dL | 314.5 ng/dL and 406.1 ng/dL and 353.0 ng/dL | 359.7 ng/dL and 860.5 ng/dL and 274.1 ng/dL | 124.84 ng/dL and 104.66 ng/dL and 282.29 ng/dL | 210.4 ng/dL and 67.37 ng/dL and 904.82 ng/dL | hematocrit (baboons, 1.5 mg/kg for 12 days): demonstrated a statistical difference; red blood cell population (baboons, 1.5 mg/kg for 12 days): substantive effects on the red blood cell population; serum glucose (baboons, 1.5 mg/kg for 12 days): within the normal range; serum carbon dioxide (baboons, day 12): higher than reference values; serum alkaline phosphatase (ALP) (baboons, following treatment): not elevated; ALT/SGPT (baboons, over the treatment period / end of the study): within the normal range; increase in serum cholesterol levels (serum cholesterol): 22% |
